Test results as given in the kinase profiling compilation of Christmann-Franck et al. (2016).

Legend:
Assay in all cases: radiometric filter-binding kinase assay
[1] = tested on: AKT2 (human), P31751 [S474D]
AURKB (human) = AURKB (human) (UniProt Q96GD4)
CAMKK2 (human) = CAMKK2 (human) (UniProt Q96RR4)
CDK2 CCNA2 (human) = CDK2 CCNA2 (human) (UniProt P20248+P24941)
CHEK1 (human) = CHEK1 (human) (UniProt O14757)
CSNK2A1 (human) = CSNK2A1 (human) (UniProt P68400)
CaMK1 (human) = CaMK1 (human) (UniProt Q14012)
DYRK1A (human) = DYRK1A (human) (UniProt Q13627)
EPHB3 (human) = EPHB3 (human) (UniProt P54753)
IGF1R (human) = IGF1R (human) (UniProt P08069)
INSR (human) = INSR (human) (UniProt P06213)
INSRR (human) = INSRR (human) (UniProt P14616)
JAK2 JH1 JH2 (human) = JAK2 JH1 JH2 (human) (UniProt O60674)
LCK (mouse) = details: accession and sequence are those of the human protein
MAP2K1 (human) = MAP2K1 (human) (UniProt Q02750)
MAP3K11 (human) = MAP3K11 (human) (UniProt Q16584)
MAP3K9 (human) = MAP3K9 (human) (UniProt P80192)
MAPK10 (human) = MAPK10 (human) (UniProt P53779)
MAPK13 (human) = MAPK13 (human) (UniProt O15264)
MARK3 (human) = MARK3 (human) (UniProt P27448)
MARK4 (human) = MARK4 (human) (UniProt Q96L34)
MINK1 (human) = MINK1 (human) (UniProt Q8N4C8)
MKNK1 (human) = MKNK1 (human) (UniProt Q9BUB5)
MST4 (human) = MST4 (human) (UniProt Q9P289)
NTRK1 (human) = NTRK1 (human) (UniProt P04629)
NUAK1 (human) = NUAK1 (human) (UniProt O60285)
PAK4 (human) = PAK4 (human) (UniProt O96013)
PHKG1 (human) = PHKG1 (human) (UniProt Q16816)
PIM2 (human) = PIM2 (human) (UniProt Q9P1W9)
PRKAA1 or PRKAA2 (rat) = details: accession and sequence are those of the human protein
PRKACA (human) = PRKACA (human) (UniProt P17612)
PRKCZ (human) = PRKCZ (human) (UniProt Q05513)
RIPK2 (human) = RIPK2 (human) (UniProt O43353)
SRC (human) = SRC (human) (UniProt P12931)
SYK (human) = SYK (human) (UniProt P43405)
YES1 (human) = YES1 (human) (UniProt P07947)

IGF1R (human), sequence (P08069 whole entry, looked up): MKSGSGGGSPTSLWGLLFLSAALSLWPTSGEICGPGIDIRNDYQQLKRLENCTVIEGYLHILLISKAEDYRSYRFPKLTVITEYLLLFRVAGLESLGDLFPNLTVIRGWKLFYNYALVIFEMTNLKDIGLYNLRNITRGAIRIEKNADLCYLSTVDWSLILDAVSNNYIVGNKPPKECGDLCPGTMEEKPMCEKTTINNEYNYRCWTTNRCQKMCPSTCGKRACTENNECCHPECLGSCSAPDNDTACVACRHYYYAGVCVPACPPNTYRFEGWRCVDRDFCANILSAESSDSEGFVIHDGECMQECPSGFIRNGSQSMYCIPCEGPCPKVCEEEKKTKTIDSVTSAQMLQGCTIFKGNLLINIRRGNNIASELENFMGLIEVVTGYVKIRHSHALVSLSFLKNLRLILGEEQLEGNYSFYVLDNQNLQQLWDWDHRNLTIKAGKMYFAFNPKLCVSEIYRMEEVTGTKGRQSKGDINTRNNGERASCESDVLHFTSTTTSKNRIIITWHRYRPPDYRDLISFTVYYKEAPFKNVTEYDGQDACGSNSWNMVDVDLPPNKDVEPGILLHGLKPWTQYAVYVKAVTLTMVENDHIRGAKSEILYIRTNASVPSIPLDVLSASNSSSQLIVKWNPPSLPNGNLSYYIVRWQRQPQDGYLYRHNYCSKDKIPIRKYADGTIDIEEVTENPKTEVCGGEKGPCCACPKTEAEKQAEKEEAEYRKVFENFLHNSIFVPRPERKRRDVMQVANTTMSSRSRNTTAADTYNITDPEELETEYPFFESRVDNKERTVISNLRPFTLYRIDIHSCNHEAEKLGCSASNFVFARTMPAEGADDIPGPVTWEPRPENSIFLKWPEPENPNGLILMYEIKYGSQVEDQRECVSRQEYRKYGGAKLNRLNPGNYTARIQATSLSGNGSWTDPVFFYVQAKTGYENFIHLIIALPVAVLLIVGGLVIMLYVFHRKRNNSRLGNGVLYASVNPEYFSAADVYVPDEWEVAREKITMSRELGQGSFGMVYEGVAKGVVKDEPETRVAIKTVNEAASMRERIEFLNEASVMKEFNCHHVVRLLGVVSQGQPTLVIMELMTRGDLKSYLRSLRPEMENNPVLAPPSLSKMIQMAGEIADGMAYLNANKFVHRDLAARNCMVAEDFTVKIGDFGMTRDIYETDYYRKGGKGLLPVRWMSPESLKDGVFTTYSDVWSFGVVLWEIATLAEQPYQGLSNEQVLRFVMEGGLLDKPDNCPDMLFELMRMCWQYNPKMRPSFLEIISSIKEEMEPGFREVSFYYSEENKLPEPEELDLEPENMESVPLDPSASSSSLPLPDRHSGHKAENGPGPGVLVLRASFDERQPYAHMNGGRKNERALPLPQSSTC
CaMK1 (human), sequence (Q14012 whole entry, looked up): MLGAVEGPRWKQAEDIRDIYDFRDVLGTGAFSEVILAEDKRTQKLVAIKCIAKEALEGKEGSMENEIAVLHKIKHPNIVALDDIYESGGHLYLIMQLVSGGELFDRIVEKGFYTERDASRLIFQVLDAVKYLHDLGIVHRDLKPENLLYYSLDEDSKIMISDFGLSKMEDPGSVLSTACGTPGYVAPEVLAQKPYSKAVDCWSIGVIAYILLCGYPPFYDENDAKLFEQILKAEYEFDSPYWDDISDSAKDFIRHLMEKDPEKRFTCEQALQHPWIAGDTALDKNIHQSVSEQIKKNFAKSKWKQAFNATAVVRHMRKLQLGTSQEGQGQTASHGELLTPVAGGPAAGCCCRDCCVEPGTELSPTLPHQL
INSR (human), sequence (P06213 whole entry, looked up): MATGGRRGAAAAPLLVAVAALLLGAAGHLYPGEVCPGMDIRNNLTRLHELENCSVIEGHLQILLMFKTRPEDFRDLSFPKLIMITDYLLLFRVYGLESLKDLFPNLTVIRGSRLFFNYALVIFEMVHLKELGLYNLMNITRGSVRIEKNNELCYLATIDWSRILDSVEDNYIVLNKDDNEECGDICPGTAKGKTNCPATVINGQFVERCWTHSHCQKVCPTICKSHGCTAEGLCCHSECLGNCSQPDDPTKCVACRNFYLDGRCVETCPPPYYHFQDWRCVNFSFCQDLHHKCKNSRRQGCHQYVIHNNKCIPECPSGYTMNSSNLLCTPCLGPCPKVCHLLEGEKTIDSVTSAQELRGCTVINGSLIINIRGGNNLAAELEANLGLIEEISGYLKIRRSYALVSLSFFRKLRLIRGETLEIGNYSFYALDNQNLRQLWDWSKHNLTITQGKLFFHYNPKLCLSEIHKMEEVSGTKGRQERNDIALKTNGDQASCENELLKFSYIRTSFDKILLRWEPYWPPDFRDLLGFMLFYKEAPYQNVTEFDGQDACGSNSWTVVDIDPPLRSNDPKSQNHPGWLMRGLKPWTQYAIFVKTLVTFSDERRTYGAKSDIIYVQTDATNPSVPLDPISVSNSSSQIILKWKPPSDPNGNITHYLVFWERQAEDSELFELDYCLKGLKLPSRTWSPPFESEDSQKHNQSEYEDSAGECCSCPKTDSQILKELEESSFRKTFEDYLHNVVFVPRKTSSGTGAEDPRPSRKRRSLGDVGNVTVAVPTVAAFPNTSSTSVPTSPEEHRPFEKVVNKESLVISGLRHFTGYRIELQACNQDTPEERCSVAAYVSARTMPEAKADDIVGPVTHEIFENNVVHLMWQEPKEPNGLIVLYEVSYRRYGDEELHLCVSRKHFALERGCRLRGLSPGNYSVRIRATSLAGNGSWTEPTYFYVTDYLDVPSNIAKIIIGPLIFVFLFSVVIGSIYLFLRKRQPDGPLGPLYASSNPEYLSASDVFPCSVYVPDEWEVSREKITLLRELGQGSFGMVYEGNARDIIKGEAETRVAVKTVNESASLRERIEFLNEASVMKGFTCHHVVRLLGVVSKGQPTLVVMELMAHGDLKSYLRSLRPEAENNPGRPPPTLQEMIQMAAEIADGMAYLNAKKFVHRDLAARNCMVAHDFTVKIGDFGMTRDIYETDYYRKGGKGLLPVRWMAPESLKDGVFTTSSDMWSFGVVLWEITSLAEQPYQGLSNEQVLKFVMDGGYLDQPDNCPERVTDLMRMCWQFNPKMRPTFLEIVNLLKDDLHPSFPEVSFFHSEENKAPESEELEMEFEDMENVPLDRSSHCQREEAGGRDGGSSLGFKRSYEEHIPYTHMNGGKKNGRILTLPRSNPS
CHEK1 (human), sequence (O14757 whole entry, looked up): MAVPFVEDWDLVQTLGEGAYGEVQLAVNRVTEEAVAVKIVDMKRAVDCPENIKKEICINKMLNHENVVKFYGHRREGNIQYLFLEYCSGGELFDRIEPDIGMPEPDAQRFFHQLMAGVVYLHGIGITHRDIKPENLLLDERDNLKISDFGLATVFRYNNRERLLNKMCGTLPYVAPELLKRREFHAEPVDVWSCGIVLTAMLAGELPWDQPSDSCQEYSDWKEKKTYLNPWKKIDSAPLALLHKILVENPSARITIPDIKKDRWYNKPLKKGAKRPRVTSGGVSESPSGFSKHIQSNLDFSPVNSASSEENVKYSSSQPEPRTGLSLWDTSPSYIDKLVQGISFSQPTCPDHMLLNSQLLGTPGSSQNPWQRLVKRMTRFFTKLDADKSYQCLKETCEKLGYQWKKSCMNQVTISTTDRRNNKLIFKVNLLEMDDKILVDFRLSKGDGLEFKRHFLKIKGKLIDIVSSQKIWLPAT
MST4 (human), sequence (Q9P289 whole entry, looked up): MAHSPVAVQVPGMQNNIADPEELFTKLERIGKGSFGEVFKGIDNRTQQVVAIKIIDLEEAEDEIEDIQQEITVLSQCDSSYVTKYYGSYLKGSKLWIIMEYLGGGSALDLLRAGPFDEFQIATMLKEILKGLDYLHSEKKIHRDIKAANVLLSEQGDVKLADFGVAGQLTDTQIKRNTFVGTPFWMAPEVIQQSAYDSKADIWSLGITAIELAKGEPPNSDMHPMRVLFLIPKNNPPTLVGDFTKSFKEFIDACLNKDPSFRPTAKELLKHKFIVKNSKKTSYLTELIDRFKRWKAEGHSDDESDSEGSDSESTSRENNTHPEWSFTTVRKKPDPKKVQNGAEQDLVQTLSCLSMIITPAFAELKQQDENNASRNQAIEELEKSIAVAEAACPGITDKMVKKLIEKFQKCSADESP
PHKG1 (human), sequence (Q16816 whole entry, looked up): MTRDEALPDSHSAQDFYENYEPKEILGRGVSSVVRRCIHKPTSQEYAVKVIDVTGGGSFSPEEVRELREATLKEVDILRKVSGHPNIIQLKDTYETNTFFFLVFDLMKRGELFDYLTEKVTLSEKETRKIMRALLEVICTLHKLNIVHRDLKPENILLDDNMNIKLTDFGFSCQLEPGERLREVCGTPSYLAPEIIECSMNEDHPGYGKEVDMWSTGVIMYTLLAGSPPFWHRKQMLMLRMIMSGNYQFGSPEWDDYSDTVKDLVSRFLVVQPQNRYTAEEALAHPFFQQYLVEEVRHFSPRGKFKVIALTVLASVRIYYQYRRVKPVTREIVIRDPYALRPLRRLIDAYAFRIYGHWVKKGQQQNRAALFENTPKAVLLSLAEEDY
MKNK1 (human), sequence (Q9BUB5 whole entry, looked up): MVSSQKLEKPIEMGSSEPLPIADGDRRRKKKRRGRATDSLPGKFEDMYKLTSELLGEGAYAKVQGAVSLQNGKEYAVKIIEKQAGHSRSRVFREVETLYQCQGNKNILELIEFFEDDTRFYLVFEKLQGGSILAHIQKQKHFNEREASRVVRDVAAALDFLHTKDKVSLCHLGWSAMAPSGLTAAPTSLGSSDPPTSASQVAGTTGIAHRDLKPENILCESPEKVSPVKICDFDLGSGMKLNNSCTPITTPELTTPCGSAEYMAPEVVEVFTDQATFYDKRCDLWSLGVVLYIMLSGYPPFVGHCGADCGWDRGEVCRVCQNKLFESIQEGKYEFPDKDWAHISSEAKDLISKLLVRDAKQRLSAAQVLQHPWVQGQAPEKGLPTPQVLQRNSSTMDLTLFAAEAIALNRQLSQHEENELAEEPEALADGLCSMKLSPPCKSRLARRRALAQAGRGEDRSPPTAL

residual activity ([1]; compound 0.1 µM): 75%
residual activity ([1]; compound 1.0 µM): 70%
residual activity ([1]; compound 10.0 µM): 61%
residual activity (AURKB (human); compound 1.0 µM): 93%
residual activity (AURKB (human); compound 10.0 µM): 90%
residual activity (CAMKK2 (human); compound 0.1 µM): 92%
residual activity (CAMKK2 (human); compound 1.0 µM): 83%
residual activity (CAMKK2 (human); compound 10.0 µM): 44%
residual activity (CDK2 CCNA2 (human); compound 0.1 µM): 88%
residual activity (CDK2 CCNA2 (human); compound 1.0 µM): 100%
residual activity (CDK2 CCNA2 (human); compound 10.0 µM): 115%
residual activity (CHEK1 (human); compound 0.1 µM): 86%
residual activity (CHEK1 (human); compound 1.0 µM): 98%
residual activity (CHEK1 (human); compound 10.0 µM): 96%
residual activity (CSNK2A1 (human); compound 0.1 µM): 90%
residual activity (CSNK2A1 (human); compound 1.0 µM): 102%
residual activity (CSNK2A1 (human); compound 10.0 µM): 77%
residual activity (CaMK1 (human); compound 0.1 µM): 109%
residual activity (CaMK1 (human); compound 1.0 µM): 83%
residual activity (CaMK1 (human); compound 10.0 µM): 22%
residual activity (DYRK1A (human); compound 0.1 µM): 101%
residual activity (DYRK1A (human); compound 1.0 µM): 94%
residual activity (DYRK1A (human); compound 10.0 µM): 58%
residual activity (EPHB3 (human); compound 0.1 µM): 99%
residual activity (EPHB3 (human); compound 1.0 µM): 99%
residual activity (EPHB3 (human); compound 10.0 µM): 90%
residual activity (IGF1R (human); compound 0.1 µM): 92%
residual activity (IGF1R (human); compound 1.0 µM): 96%
residual activity (IGF1R (human); compound 10.0 µM): 25%
residual activity (INSR (human); compound 0.1 µM): 127%
residual activity (INSR (human); compound 1.0 µM): 101%
residual activity (INSR (human); compound 10.0 µM): 100%
residual activity (INSRR (human); compound 0.1 µM): 73%
residual activity (INSRR (human); compound 1.0 µM): 77%
residual activity (INSRR (human); compound 10.0 µM): 53%
residual activity (JAK2 JH1 JH2 (human); compound 1.0 µM): 90%
residual activity (JAK2 JH1 JH2 (human); compound 10.0 µM): 86%
residual activity (LCK (mouse); compound 0.1 µM): 88%
residual activity (LCK (mouse); compound 1.0 µM): 106%
residual activity (LCK (mouse); compound 10.0 µM): 58%
residual activity (MAP2K1 (human); compound 0.1 µM): 91%
residual activity (MAP2K1 (human); compound 1.0 µM): 95%
residual activity (MAP2K1 (human); compound 10.0 µM): 87%
residual activity (MAP3K11 (human); compound 1.0 µM): 88%
residual activity (MAP3K11 (human); compound 10.0 µM): 56%
residual activity (MAP3K9 (human); compound 1.0 µM): 92%
residual activity (MAP3K9 (human); compound 10.0 µM): 40%
residual activity (MAPK10 (human); compound 1.0 µM): 105%
residual activity (MAPK10 (human); compound 10.0 µM): 89%
residual activity (MAPK13 (human); compound 0.1 µM): 91%
residual activity (MAPK13 (human); compound 1.0 µM): 78%
residual activity (MAPK13 (human); compound 10.0 µM): 85%
residual activity (MARK3 (human); compound 0.1 µM): 100%
residual activity (MARK3 (human); compound 1.0 µM): 108%
residual activity (MARK3 (human); compound 10.0 µM): 99%
residual activity (MARK4 (human); compound 1.0 µM): 110%
residual activity (MARK4 (human); compound 10.0 µM): 85%
residual activity (MINK1 (human); compound 1.0 µM): 91%
residual activity (MINK1 (human); compound 10.0 µM): 55%
residual activity (MKNK1 (human); compound 0.1 µM): 92%
residual activity (MKNK1 (human); compound 1.0 µM): 100%
residual activity (MKNK1 (human); compound 10.0 µM): 97%
residual activity (MST4 (human); compound 0.1 µM): 73%
residual activity (MST4 (human); compound 1.0 µM): 100%
residual activity (MST4 (human); compound 10.0 µM): 77%
residual activity (NTRK1 (human); compound 1.0 µM): 47%
residual activity (NTRK1 (human); compound 10.0 µM): 30%
residual activity (NUAK1 (human); compound 1.0 µM): 106%
residual activity (NUAK1 (human); compound 10.0 µM): 78%
residual activity (PAK4 (human); compound 0.1 µM): 83%
residual activity (PAK4 (human); compound 1.0 µM): 110%
residual activity (PAK4 (human); compound 10.0 µM): 96%
residual activity (PHKG1 (human); compound 0.1 µM): 96%
residual activity (PHKG1 (human); compound 1.0 µM): 53%
residual activity (PHKG1 (human); compound 10.0 µM): 14%
residual activity (PIM2 (human); compound 0.1 µM): 90%
residual activity (PIM2 (human); compound 1.0 µM): 95%
residual activity (PIM2 (human); compound 10.0 µM): 78%
residual activity (PRKAA1 or PRKAA2 (rat); compound 0.1 µM): 83%
residual activity (PRKAA1 or PRKAA2 (rat); compound 1.0 µM): 88%
residual activity (PRKAA1 or PRKAA2 (rat); compound 10.0 µM): 60%
residual activity (PRKACA (human); compound 0.1 µM): 80%
residual activity (PRKACA (human); compound 1.0 µM): 106%
residual activity (PRKACA (human); compound 10.0 µM): 84%
residual activity (PRKCZ (human); compound 0.1 µM): 78%
residual activity (PRKCZ (human); compound 1.0 µM): 105%
residual activity (PRKCZ (human); compound 10.0 µM): 103%
residual activity (RIPK2 (human); compound 1.0 µM): 100%
residual activity (RIPK2 (human); compound 10.0 µM): 95%
residual activity (SRC (human); compound 0.1 µM): 85%
residual activity (SRC (human); compound 1.0 µM): 93%
residual activity (SRC (human); compound 10.0 µM): 121%
residual activity (SYK (human); compound 0.1 µM): 109%
residual activity (SYK (human); compound 1.0 µM): 93%
residual activity (SYK (human); compound 10.0 µM): 67%
residual activity (YES1 (human); compound 0.1 µM): 69%
residual activity (YES1 (human); compound 1.0 µM): 82%
residual activity (YES1 (human); compound 10.0 µM): 80%
Structure (SMILES): O=C(Nc1ccccc1-c1cn2c(CN3CCNCC3)csc2n1)c1cnc2ccccc2n1
